Key:
Type in all cases: in vivo
CD-1 Swiss/UCàdiz mice [1] = assay: Survival of thioproline-supplemented mice; conditions: for Mean life span / Maximum life expectancy: supplemented mice n=70; for Mean life span: control 62±4 weeks; for Maximum life expectancy: control 118±4 weeks
Excerpt: (§1) The mice strain used in this study, CD-1 Swiss/UCàdiz, is a type of mice with accelerated senescence similar to the AKR, SAM, NZB/Lac, and SJL/J mice having a mean life span of 36-57 weeks and a maximum life expectancy of 52-83 weeks. These mice have been used in the Universidad de Càdiz in several survival studies (Navarro A, Gomez C, Sanchez-Pino M J, Gonzalez H. Bandez M J, Boveris A D and Boveris A. Vitamin E at high doses improves survival, neurological performance, and brain mitochondrial function in aging male mice. Am J Physiol Regul Integr Comp Physiol 289: R1392-R1399, 2005; Navarro A, Gomez C, Lopez-Cepero J M and Boveris A. Beneficial effects of moderate exercise on mice aging: survival, behavior, oxidative stress, and mitochondrial electron transfer. Am J Physiol Regul Integr Comp Physiol 286: R505-R511, 2004; Navarro A, Sanchez Del Pino M J, Gomez C, Peralta J L and Boveris A. Behavioral dysfunction, brain oxidative stress, and impaired mitochondrial electron transfer in aging mice. Am J Physiol Regul Integr Comp Physiol 282: R985-R992, 2002).
(§2) The control group received standard laboratory animal food (A04 diet, Panlab LS, Barcelona, Spain), whereas the l-thioproline-supplemented mice received the same food as the mice in the control group, but supplemented with 2.0 g of l-thioproline (Sigma Aldrich)/kg of food from 28 weeks of age and until the end of their lives.
The date on which each mouse died (Example 1) was controlled to be able to obtain the survival curves.

CD-1 Swiss/UCàdiz mice [2] = assay: Neurological tests (tightrope test and T maze test); conditions: once a week, FIG. 2A, 2B
Excerpt: The animals of Example 1 were subjected to two tests once a week to evaluate neurological capacities, specifically to the tightrope test and the T maze test. The assayed animals were the animals mentioned in Example 1, i.e. the group of control mice and the group of mice with an l-thioproline-supplemented diet according to the treatment described in the Example 1. This test allows evaluating neuromuscular coordination. The mice were suspended in the center of a 60 cm wide tightrope and the time it took them to reach one of the columns located at the end of the rope was measured. The test was considered positive when the animal reached one of the ends in less than 60 seconds. This test measures spontaneous cognitive neurological activity. The mice were placed in a T maze with 50 cm arms, and the test was considered successful when the mice reached the intersection in less than 60 seconds.

CD-1 Swiss/UCàdiz mice [3] = assay: Average daily food intake ad libitum; conditions: diet with 2.0 g l-thioproline/kg of food
Method: To study the effect of thioproline, particularly of l-thioproline, on feeding behavior, CD-1 Swiss/UCàdiz mice bred in the Animal Experimentation department of the Universidad de Càdiz were used. The mice were stabled in groups of 5 animals at 22±2° C. with 12 h/12 h of light/dark cycles and with free access, ad libitum, to food and water. The control group received standard laboratory animal food (A04 diet, Panlab LS, Barcelona, Spain), whereas the l-thioproline-supplemented mice received the same food as the mice in the control group, but supplemented with 2.0 g of l-thioproline (Sigma Aldrich)/kg of food from 28 weeks of age and until the end of their lives. The food was weighed daily. The mice were weighed weekly, and it was periodically controlled that the animals were pathogen-free.

CD-1 Swiss/UCàdiz mice [4] = assay: Body weight of mice on l-thioproline-supplemented diet; design: Variation: percentage reduction in weight between supplemented mice and control mice: concentration or dose not given beside the values; conditions: for Average weight: average ± SEM
Excerpt: To study the effect of thioproline, particularly of l-thioproline, on feeding behavior, CD-1 Swiss/UCàdiz mice bred in the Animal Experimentation department of the Universidad de Càdiz were used.
as §1
The mice were stabled in groups of 5 animals at 22±2° C. with 12 h/12 h of light/dark cycles and with free access, ad libitum, to food and water.
as §2
The food was weighed daily. The mice were weighed weekly, and it was periodically controlled that the animals were pathogen-free.

O=C(O)C1CSCN1 (stereo not drawn) [l-thioproline, thiazolidine-4-carboxylic acid]
Prolongation of mean life span versus control (CD-1 Swiss/UCàdiz mice [1]; from 62 weeks to 80 weeks): approximately 29%
Prolongation of maximum life versus control (CD-1 Swiss/UCàdiz mice [1]; from 118 weeks to 145 weeks): approximately 23%
Mean life span (CD-1 Swiss/UCàdiz mice [1]): 80 weeks
Mean life span (CD-1 Swiss/UCàdiz mice [1]; listed as thioproline): 80±3 weeks
Maximum life expectancy (CD-1 Swiss/UCàdiz mice [1]): 145 weeks
Maximum life expectancy (CD-1 Swiss/UCàdiz mice [1]; listed as thioproline): 145±3 weeks
Improvement in the neurological tests compared to control group (CD-1 Swiss/UCàdiz mice [2]): 17-39%
Spontaneous reduction of the intake versus control mice (CD-1 Swiss/UCàdiz mice [3]): approximately 20%
Average daily intake ad libitum (CD-1 Swiss/UCàdiz mice [3]; control 6.3±0.03 g/day): 5.1 ± 0.03 g/day
Weight increase versus control group (CD-1 Swiss/UCàdiz mice [4]; after 12 weeks of l-thioproline-supplemented diet, FIG. 1): smaller weight increase than the increase observed in the control group
Variation: percentage reduction in weight between supplemented mice and control mice (CD-1 Swiss/UCàdiz mice [4]; age 28 weeks): 2.06%
Average weight (CD-1 Swiss/UCàdiz mice [4]; age 28 weeks (start of supplementation), diet with 2.0 g l-thioproline/kg of food): 42.7 ± 0.4 g
Variation: percentage reduction in weight between supplemented mice and control mice (CD-1 Swiss/UCàdiz mice [4]; age 52 weeks): 4.45%
Average weight (CD-1 Swiss/UCàdiz mice [4]; age 52 weeks, diet with 2.0 g l-thioproline/kg of food from 28 weeks of age): 47.2 ± 0.4 g
Variation: percentage reduction in weight between supplemented mice and control mice (CD-1 Swiss/UCàdiz mice [4]; age 78 weeks): 11.65%
Average weight (CD-1 Swiss/UCàdiz mice [4]; age 78 weeks, diet with 2.0 g l-thioproline/kg of food from 28 weeks of age): 48.5 ± 0.5 g
Variation: percentage reduction in weight between supplemented mice and control mice (CD-1 Swiss/UCàdiz mice [4]; age 100 weeks): 10.18%
Average weight (CD-1 Swiss/UCàdiz mice [4]; age 100 weeks, diet with 2.0 g l-thioproline/kg of food from 28 weeks of age): 49.4 ± 0.5 g

— patent US20090298895A1, “USE OF THIOPROLINE IN BODY WEIGHT REDUCTION TREATMENTS” (Universidad De Cadiz, priority 2006, published 2009)
